Measurements as given in patent US20200353107A1, “IN VIVO IMAGING OF TUMOR INFILTRATION LEUKOCYTES” (STC.UNM, priority 2017, published 2020).

Key:
LFA-1 receptor = target: T1, LFA-1 receptor (Mus musculus, UniProt P24063); test: SPECT/CT imaging of mice after intravenous injection of the radioligand; assay type: in vivo
T1 construct: Leukocyte function-associated antigen-1 (LFA-1) receptors are normally expressed by all white blood cells; from tissue; host or cells: live mice (leukocytes in vivo)
T1 sequence (P24063 24-1162): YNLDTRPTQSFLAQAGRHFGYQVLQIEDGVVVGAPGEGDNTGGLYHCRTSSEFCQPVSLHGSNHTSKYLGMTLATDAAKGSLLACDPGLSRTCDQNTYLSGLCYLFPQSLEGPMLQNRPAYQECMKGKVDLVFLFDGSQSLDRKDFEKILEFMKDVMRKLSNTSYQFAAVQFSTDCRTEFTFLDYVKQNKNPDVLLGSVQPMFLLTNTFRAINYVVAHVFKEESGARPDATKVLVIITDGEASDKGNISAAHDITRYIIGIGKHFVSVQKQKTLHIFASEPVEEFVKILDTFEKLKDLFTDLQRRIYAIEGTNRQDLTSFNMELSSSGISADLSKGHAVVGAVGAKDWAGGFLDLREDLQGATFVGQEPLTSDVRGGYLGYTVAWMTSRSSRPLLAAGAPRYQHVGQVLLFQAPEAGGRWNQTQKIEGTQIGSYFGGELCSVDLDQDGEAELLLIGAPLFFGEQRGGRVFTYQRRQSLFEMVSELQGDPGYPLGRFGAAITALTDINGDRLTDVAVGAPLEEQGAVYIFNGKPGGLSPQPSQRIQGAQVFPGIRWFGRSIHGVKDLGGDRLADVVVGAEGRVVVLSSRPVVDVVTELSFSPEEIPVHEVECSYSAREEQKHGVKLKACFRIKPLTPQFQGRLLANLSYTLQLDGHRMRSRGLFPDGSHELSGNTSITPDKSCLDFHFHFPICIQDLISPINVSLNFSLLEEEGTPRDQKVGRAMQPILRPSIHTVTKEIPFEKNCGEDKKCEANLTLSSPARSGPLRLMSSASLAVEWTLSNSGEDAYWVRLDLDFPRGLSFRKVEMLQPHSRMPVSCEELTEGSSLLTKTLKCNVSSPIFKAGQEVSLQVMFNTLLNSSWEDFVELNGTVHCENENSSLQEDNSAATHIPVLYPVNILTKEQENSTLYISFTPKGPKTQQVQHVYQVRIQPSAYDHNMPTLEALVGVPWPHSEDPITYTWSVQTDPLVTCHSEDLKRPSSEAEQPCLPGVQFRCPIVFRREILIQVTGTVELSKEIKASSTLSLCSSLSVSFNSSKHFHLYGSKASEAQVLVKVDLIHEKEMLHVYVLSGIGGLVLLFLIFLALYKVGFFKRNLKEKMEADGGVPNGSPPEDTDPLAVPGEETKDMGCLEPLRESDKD
T1 sequence (P11835 24-771 partner): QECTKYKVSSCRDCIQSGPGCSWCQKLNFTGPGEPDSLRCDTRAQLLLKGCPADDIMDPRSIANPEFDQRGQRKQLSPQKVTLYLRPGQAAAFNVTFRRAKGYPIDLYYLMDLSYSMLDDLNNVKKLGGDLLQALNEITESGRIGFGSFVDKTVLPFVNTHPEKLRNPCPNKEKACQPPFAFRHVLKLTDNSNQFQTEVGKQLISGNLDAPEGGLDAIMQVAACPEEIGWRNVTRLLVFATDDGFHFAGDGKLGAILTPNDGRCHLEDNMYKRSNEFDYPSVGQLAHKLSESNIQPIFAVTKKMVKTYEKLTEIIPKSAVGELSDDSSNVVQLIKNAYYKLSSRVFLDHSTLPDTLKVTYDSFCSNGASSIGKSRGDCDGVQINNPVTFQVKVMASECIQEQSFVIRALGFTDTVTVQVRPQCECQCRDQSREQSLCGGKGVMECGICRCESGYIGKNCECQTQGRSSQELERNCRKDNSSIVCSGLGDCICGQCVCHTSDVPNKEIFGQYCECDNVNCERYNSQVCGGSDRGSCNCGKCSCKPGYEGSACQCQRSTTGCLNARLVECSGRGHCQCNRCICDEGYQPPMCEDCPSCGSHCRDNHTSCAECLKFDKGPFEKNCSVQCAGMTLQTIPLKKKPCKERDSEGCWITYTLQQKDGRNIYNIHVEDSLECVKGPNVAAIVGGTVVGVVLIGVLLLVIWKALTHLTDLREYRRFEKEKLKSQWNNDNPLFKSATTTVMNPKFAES
Method: Mice are imaged with the Bioscan NanoSPECT/CT imaging system. Dynamic images are obtained immediately following injection of ˜750 uCi of ^111In-ROTA-alkylamino-NorBIRT intravenously. Static images are also obtained at 2, 4, and 24 hours post injection. Images are individually characterized.

[1] = Biodistribution study (gross dissection and tissue harvest); assay type: in vivo, mice; details: dissection at 18 and 24 hrs post-inoculation
Method: […] Results are evaluated as the percent injected dose per gram of tissue. The organs assessed are the heart, blood, stomach, liver, spleen, adrenals, kidneys, bone, muscle, bladder, testes, as well as the abcess or site of infection.

In the case of “^111In-DOTA-alkylamino-NorBIRT [^111In-alkylaminoNorBIRT]”, the “uptake/retention at the tumor, early images” value (LFA-1 receptor; 5 minutes post-injection) is reported as “high concentrations”, the “focal retention in other tissues” value (LFA-1 receptor; SPECT/CT images) is reported as “no focal retention in any other tissues” and the “radioactivity in the bladder” value (LFA-1 receptor; SPECT/CT images) is reported as “prompt and significant radioactivity in the bladder”. For the same substance, the “uptake in the tumor in SPECT/CT images” value (LFA-1 receptor; SPECT/CT images, mice, i.v.) was “focal uptake in the tumor”, the “persistence of focal tumor uptake” value (LFA-1 receptor; all time points, including 24 hours post-injection) was “persists at all time points” and the “urinary excretion in SPECT/CT images” value (LFA-1 receptor; as soon as 5 minutes post-injection and at all subsequent time points) was “prompt and significant urinary excretion”. The “selectivity as imaging probe for LFA-1 receptor expression” value (LFA-1 receptor; in vivo SPECT/PET imaging of tumor sites) was “highly selective imaging probes” and the “agreement of biodistribution data with image-based pharmacokinetic data” value [1] was “correlate well with image-based pharmacokinetic data”.
